According to patent US10577610B2, “EpCAM aptamers and conjugates thereof” (Deakin University, priority 2015, dated 2020):
[invdT] = inverted (3'-3') thymidine; {TYE665} = TYE665 fluorescent dye

Legend:
bEnd.3 cells = assay: Confocal microscopy internalisation into bEnd.3 cells; assay type: cell-based, mouse; conditions: for Internalisation into TfR-expressing bEnd.3 cells: conjugate aptamers, 400 nM, two hour, confocal microscopy
Description: Confocal microscopy was used as a means of visualising aptamer internalisation into the cells. Both aptamers and cells were prepared in the same manner as described above before they were mixed and allowed to incubate at 37° C. The aptamers were used at a concentration of 200 nM and were allowed to incubate for 60 minutes. The concentration for the conjugate (bifunctional) aptamers was 400 nM and these were incubated with the cells for 120 minutes. Ten minutes prior to end of incubation, 2 μL of Hoechst nuclear stain (10 mg/mL) was added to cells. Cells were then washed three times with 100 μL of PBS as described above and resuspended in 20 μL (8×10^5 cells/well) in an 8-chambered slide (Lab-Tek II, Nunc) for visualisation. Cells were incubated in blocking buffer for 60 mins followed by resuspension in binding buffer containing the aptamer and incubated for 60 mins at 37° C. […] The aptamer solution was removed and the cells were washed three times for 5 min each in PBS prior to visualisation using a FluoView FV10i laser scanning confocal microscope (Olympus). In order to assess the mechanism of cellular uptake, the internalisation of a phycoethyrin-labelled rat anti-mouse TfR monoclonal antibody (R17217; Abcam) was also visualised by confocal microscopy by co-incubating it with the aptamer at 1 μg/mL for 30 minutes. The uptake of these aptamers into cells is an important factor in determining the potential for use as therapeutics. The anti-transferrin receptor aptamers generated herein are designed to pass through the BBB via the active transcytosis pathway. […] This was done by visualising the internalisation of aptamers at a concentration of 200 nM into bEnd.3 and MOLT4 cells over the course of a one hour incubation with confocal microscopy. Aptamers are relatively new molecular tools in the field of diagnostics and therapeutics. […] The performance of the aptamer with a corresponding antibody was compared by examining uptake in bEnd.3 cells. This was done by incubating the highest affinity aptamer, TfR3, and the anti-TfR antibody with the bEnd.3 cells and observing them via confocal microscopy. The anti-TfR aptamers generated herein are intended to be used as drug delivery agents capable of crossing the blood-brain barrier (BBB). In an in vivo or clinical setting, these would need to pass from the bloodstream and into the BBB endothelial monolayer before exiting on the other side into the brain parenchyma. Given this, it is vital that these are not only capable of entered cells via active transport processes, but can also exocytose out again. Therefore, a time course internalisation experiment was conducted in order to establish whether or not the aptamers are being retained in the cells or are returning to the extracellular fluid. […]

[1] = tested on: in vitro BBB model (bEnd.3 endothelial monolayer); assay: Aptamer permeability across in vitro blood brain barrier model (HEY-bEnd.3 co-culture); assay type: in vitro ADME, mouse; conditions: 2 μM in upper compartment, three hours
Description: In order to assess the ability of the TfR containing aptamers to pass through an endothelial cell monolayer via receptor mediated transport (RMT) an in vitro model of the BBB was produced as shown schematically in FIG. 1. Transwell inserts (polyethylene terephthalate (PET) with 0.4 μm diameter pores) within a 24-well plate (Corning) were incubated with 100 μL of 50% Collagen IV for 2 hours at 37° C. Flasks of bEnd.3 cells were trypsinised to generate a single-cell suspension, and counted using a haemocytometer and trypan blue to ensure that a sufficient proportion of cells were alive. These were then centrifuged and resuspended in media. Wells were filled with 800 μL of serum-free media and transwell inserts were placed on top. Cells were then seeded in 90 μL of serum-free media at a density of 1×10^6 cells/cm^2 and were allowed to incubate at 37° C. Cells were allowed to settle for 6 hours and then 60 μL of enhanced media (DMEM low glucose: Ham's F12 (1:1), (both serum-free) 550 nM hydrocortisone, 32 μM cAMP, 17.5 μM aminophylline, 1 μM retinoic acid, 5 μg/mL insulin, 2.75 μg/mL transferrin, 2.5 ng/mL sodium selenite, 100 ng/mL bFGF (basic fibroblast growth factor), 20 ng/mL EGF (epidermal growth factor)) (Wuest D M et al (2013) Journal of Neuroscience Methods 212(2):211-21) was added to the transwells. Media in both compartments were replaced the next day with enhanced media in order to supplement the growth of the monolayer.
HEY cells were subcultured and counted using a haemocytometer and trypan blue in order to assess the percentage of living cells. Subsequently, they were diluted in DMEM media at a concentration of 87 500 cells/mL. Media was removed from the bottom compartment of the in vitro BBB model and replaced with 800 μL of the HEY cell solution, seeding at 70 000 cells per well. These were allowed to incubate overnight. Next, media was removed from the upper compartment of the transwells and 100 μL of aptamer at a concentration of 2 μM was pipetted on top of the transwell membrane. […]

Substance	Internalisation into TfR-expressing bEnd.3 cells (bEnd.3 cells)	Internalisation into HEY cells in bottom compartment after incubation on in vitro BBB model [1]	Co-localisation with the anti-TfR antibody (bEnd.3 cells; bEnd.3 cells, co-incubation with antibody R17217)
Bi1: aptamer conjugate based on TfR1 and scrambled EpCAM binding loop, negative control, SEQ ID NO:8 (GCGCGTGCACGCGCTAACGGATTCCTTTTCCGN; listed as DNA, further chemistry not given here)	not	not observed inside HEY cells	–
TfR3: version of TfR1 with scrambled binding loop sequence, SEQ ID NO:6 (DNA GCGTGGTACCACGC; DNA, 5' {TYE665}, 3' [invdT], backbone not given here)	–	–	observed
5′-GCGCGGTACCGCGCTAACGGAGGTTGCGTCCGT-3′ (GCGCGGTACCGCGCTAACGGAGGTTGCGTCCGN; listed as DNA, chemistry not given here) [Bi3]	internalised	observed to become internalised into the HEY cells	–
5′-GCGCGGGCCCGCGCTAACGGAGGTTGCGTCCGT-3′ (GCGCGGGCCCGCGCTAACGGAGGTTGCGTCCGN; DNA sequence of aptamer conjugate Bi2; (33)..(33) n is t or 3′ inverted deoxythymidine (dT))	internalised	observed to become internalised into the HEY cells	–
